{"source": "patent US4898887A", "about": "“Compounds and compositions having anti-inflammatory and analgesic activity” (The Procter & Gamble Company, priority 1986, dated 1990)", "key": {"[1]": {"tested_on": "analgesia and inflammation", "conditions": "background, literature on capsaicin; cited from earlier work"}, "[2]": {"tested_on": "analgesia and inflammation", "test": "oral administration to human: analgesia and inflammation", "assay_type": "in vivo", "experimental": "A composition for oral administration of N-vanillyl-5Z,8Z,11Z,14Z-eicosatetraenamide is prepared by a substantially similar method."}, "[3]": {"tested_on": "analgesia and inflammation", "test": "topical administration to human: analgesia and inflammation", "assay_type": "in vivo", "conditions": "Example VI, 0.4 ml to 80 cm^2 of forearm of 60 kg human", "experimental": "The octadecatrienamide is melted to a liquid with slight warming and combined with the other ingredients.\nA composition for topical application of N-vanillyl-5Z,8Z,11Z,14Z-eicosatetraenamide is prepared by a substantially similar method."}, "[4]": {"tested_on": "analgesia and inflammation", "test": "intramuscular administration to human: analgesia and inflammation", "assay_type": "in vivo", "conditions": "Example III, ethyl oleate/benzyl alcohol, 1.5 ml in 65 kg human", "experimental": "The octadecatrienamide is dissolved in the solution combining ethyl oleate and benzyl alcohol, sealed into airtight 5 ml ampoules, and sterilized by autoclaving.\nA composition for parenteral administration of N-vanillyl-5Z,8Z,11Z,14Z-eicosatetraenamide is prepared by a substantially similar method."}, "[5]": {"tested_on": "phenylbenzoquinone-induced writhing", "test": "phenylquinone writhing assay", "assay_type": "in vivo, mouse (male mice)", "conditions": "oral gavage 3 h before i.p. 0.2% phenylbenzoquinone; 10 minute period; vehicle control 17.4 ± 1.7", "experimental": "Three trienamide composition were tested for analgesic and anti-inflammatory activity using the phenylquinone writhing assay.\nGroups of eight male mice weighing between approximately 25 and 30 g were dosed orally by gavage with the composition to be tested. Identical groups of mice were dosed with control compositions. Three hours after this initial administration, the mice were injected intraperitoneally with a 0.2% solution of phenylbenzoquinone in aqueous ethanol. The ability of the analgesic compositions tested to relieve the discomfort induced was measured by counting the number of abdominal contractions, or \"writhes\", occurring in each mouse during a 10 minute period beginning 10 minutes after injection of the phenylbenzoquinone solution."}, "[6]": {"tested_on": "croton oil-induced mouse ear inflammation", "test": "croton oil-induced mouse ear inflammation test", "assay_type": "in vivo, mouse (adult male Cox ICR mice)", "conditions": "25 μl of 1% ethanolic solution on left ear, 20-28 h and 5-6 h prior to sacrifice; 2% croton oil 4 h prior to sacrifice", "experimental": "Two trienamide compositions were tested for anti-inflammatory activity using the croton oil-induced mouse ear inflammation test.\nAdult male Cox ICR mice, 20-30 g, were treated on the left ear at 20-28 hours prior to sacrifice and a second time 5-6 hours prior to sacrifice with 25 μl of a 1% ethanolic solution of the test compound. Four hours prior to sacrifice both ears were treated with 25 μl of a 2% solution of croton oil in acetone. Each animal was then placed in individual cages and given food and water ad lib. Animals were sacrificed by cervical dislocation and both ears removed. From these ears, 0.38 cm^2 punch biopsies were taken from the central portion and each biopsy weighed on a Cahn electrobalance.\nFor each test substance, a group of 10 animals was used. Control groups either had both ears treated with croton oil or just the right ear. It was experimentally determined that a value of 11.0 mg could be assumed for a punch biopsy from a normal untreated ear and still be within the experimental error of the test. Therefore, for the calculation of percent inhibition, a value of 11.0 mg was used. [formula]\nThis calculation is valid only when no systemic effects are noted as evidenced by comparison of right ears of treated and control groups.\nStatistical signifance at the 95% confidence level was determined by the paired test."}, "[7]": {"tested_on": "threshold for the perception of pain (hot plate, 55° C.)", "conditions": "unless administered in toxic quantities; cited from earlier work"}, "[8]": {"tested_on": "threshold for the perception of pain (hot plate, 55° C.)", "test": "Rodent Hot Plate Test (rats, VL)"}, "[9]": {"tested_on": "analgesia and inflammation", "test": "analgesic and anti-inflammatory activity (general statement)", "assay_type": "in vivo"}, "[10]": {"test": "toxicity and narcotic side effects (general statement)", "assay_type": "in vivo"}, "[11]": {"conditions": "Example IV, sesame oil soft gelatin capsules, two capsules of 225 mg in 60 kg human"}, "[12]": {"conditions": "Example V, syrup, one teaspoon in 70 kg adult human"}}, "note": "Where two headings read alike, the source gives them in different places."}
{"compound": "COc1cc(CNC(=O)CCCCC=CC(C)C)ccc1O", "note": "[capsaicin, 8-methyl-N-vanillyl-6-nonenamide]", "values": [{"measurement": "analgesia", "setting": "[1]", "result": "induces analgesia"}]}
{"compound": "CCCCC/C=C\\C/C=C\\C/C=C\\C/C=C\\CCCC(=O)NCc1ccc(O)c(OC)c1", "note": "[N-vanillyl-5Z,8Z,11Z,14Z-eicosatetraenamide]", "values": [{"measurement": "analgesia", "setting": "[2]; [11]", "result": "produces analgesia"}, {"measurement": "reduction of inflammation", "setting": "[2]; [11]", "result": "reduces inflammation"}, {"measurement": "analgesia", "setting": "[2]; [12]", "result": "produces analgesia"}, {"measurement": "reduction of inflammation", "setting": "[2]; [12]", "result": "reduces inflammation"}, {"measurement": "analgesia", "setting": "[3]", "result": "produces analgesia"}, {"measurement": "reduction of inflammation", "setting": "[3]", "result": "reduces inflammation"}, {"measurement": "analgesia", "setting": "[4]", "result": "produces analgesia"}, {"measurement": "reduction of inflammation", "setting": "[4]", "result": "reduces inflammation"}]}
{"compound": "CCCCC/C=C\\C/C=C\\C/C=C\\CCCCC(=O)NCc1ccc(O)c(OC)c1", "note": "[N-vanillyl-6Z,9Z,12Z-octadecatrienamide]", "values": [{"measurement": "Writhes/10 minutes", "setting": "[5]", "result": "0.0 ± 0.0", "unit": "Writhes/10 minutes"}, {"measurement": "reduction of inflammation", "setting": "[2]; [11]", "result": "substantially similar reduction of inflammation"}, {"measurement": "reduction of inflammation", "setting": "[2]; [12]", "result": "substantially similar reduction of inflammation"}, {"measurement": "reduction of inflammation", "setting": "[3]", "result": "substantially similar reduction of inflammation"}, {"measurement": "reduction of inflammation", "setting": "[4]", "result": "substantially similar reduction of inflammation"}, {"measurement": "% Inhibition", "setting": "[6]", "result": "100.7 ± 11.9", "unit": "%"}]}
{"compound": "CC(=O)Nc1ccc(O)cc1", "note": "[acetaminophen]", "values": [{"measurement": "activity in the RHP system", "setting": "[7]", "result": "little or no activity"}]}
{"compound": "CC(=O)Oc1ccccc1C(=O)O", "note": "[aspirin]", "values": [{"measurement": "activity in the RHP system", "setting": "[7]", "result": "little or no activity"}]}
{"compound": "CC/C=C\\C/C=C\\C/C=C\\CCCCCCCC(=O)NCc1ccc(O)c(OC)c1", "note": "[N-vanillyl-9Z,12Z,15Z-octadecatrienamide]", "values": [{"measurement": "Writhes/10 minutes", "setting": "[5]", "result": "0.4 ± 0.3", "unit": "Writhes/10 minutes"}, {"measurement": "analgesia", "setting": "[2]; [11]", "result": "producing analgesia"}, {"measurement": "reduction of inflammation", "setting": "[2]; [11]", "result": "reducing inflammation"}, {"measurement": "analgesia", "setting": "[2]; [12]", "result": "producing analgesia"}, {"measurement": "reduction of inflammation", "setting": "[2]; [12]", "result": "reducing inflammation"}, {"measurement": "% Animals Analgesic", "setting": "[8]; Example X, 20 mg/kg oral in sesame oil, 1 hr post-dose, vehicle 0", "result": 70, "unit": "%"}, {"measurement": "% Animals Analgesic", "setting": "[8]; Example X, 20 mg/kg oral in sesame oil, 2 hrs post-dose, vehicle 20", "result": 30, "unit": "%"}, {"measurement": "% Animals Analgesic", "setting": "[8]; Example X, 20 mg/kg oral in sesame oil, 3 hrs post-dose, vehicle 0", "result": 10, "unit": "%"}, {"measurement": "% Animals Analgesic", "setting": "[8]; Experiment A, 200 mg/kg oral in propylene glycol, 1 hr post-dose, vehicle 20", "result": 80, "unit": "%"}, {"measurement": "% Animals Analgesic", "setting": "[8]; Experiment A, 200 mg/kg oral in propylene glycol, 2 hrs post-dose, vehicle 10", "result": 40, "unit": "%"}, {"measurement": "% Animals Analgesic", "setting": "[8]; Experiment A, 200 mg/kg oral in propylene glycol, 3 hrs post-dose, vehicle 0", "result": 30, "unit": "%"}, {"measurement": "% Animals Analgesic", "setting": "[8]; Experiment B, 200 mg/kg oral in propylene glycol, 1 hr post-dose, vehicle 0", "result": 50, "unit": "%"}, {"measurement": "% Animals Analgesic", "setting": "[8]; Experiment B, 200 mg/kg oral in propylene glycol, 2 hrs post-dose, vehicle 20", "result": 60, "unit": "%"}, {"measurement": "% Animals Analgesic", "setting": "[8]; Experiment B, 200 mg/kg oral in propylene glycol, 3 hrs post-dose, vehicle 0", "result": 20, "unit": "%"}, {"measurement": "% Animals Analgesic", "setting": "[8]; Experiment C, 288 mg/kg oral in propylene glycol, 1 hr post-dose, vehicle 10", "result": 50, "unit": "%"}, {"measurement": "% Animals Analgesic", "setting": "[8]; Experiment C, 288 mg/kg oral in propylene glycol, 2 hrs post-dose, vehicle 0", "result": 10, "unit": "%"}, {"measurement": "% Animals Analgesic", "setting": "[8]; Experiment C, 288 mg/kg oral in propylene glycol, 3 hrs post-dose, vehicle 0", "result": 0, "unit": "%"}, {"measurement": "analgesia", "setting": "[3]", "result": "produces analgesia"}, {"measurement": "reduction of inflammation", "setting": "[3]", "result": "reduces inflammation"}, {"measurement": "analgesia", "setting": "[4]", "result": "produces analgesia"}, {"measurement": "reduction of inflammation", "setting": "[4]", "result": "reduces inflammation"}, {"measurement": "% Inhibition", "setting": "[6]", "result": "78.5 ± 31.9", "unit": "%"}]}
{"compound": "CC/C=C\\C/C=C\\C/C=C\\CCCCCCCCCC(=O)NCc1ccc(O)c(OC)c1", "note": "[N-vanillyl-11Z,14Z,17Z-eicosatrienamide]", "values": [{"measurement": "Writhes/10 minutes", "setting": "[5]", "result": "0.4 ± 0.3", "unit": "Writhes/10 minutes"}, {"measurement": "analgesic activity / potency compared with aspirin and opioids", "setting": "[9]", "result": "analgesic activity comparable to that of the opioids"}, {"measurement": "reduction of inflammation", "setting": "[2]; [11]", "result": "substantially similar reduction of inflammation"}, {"measurement": "reduction of inflammation", "setting": "[2]; [12]", "result": "substantially similar reduction of inflammation"}, {"measurement": "reduction of inflammation", "setting": "[3]", "result": "substantially similar reduction of inflammation"}, {"measurement": "reduction of inflammation", "setting": "[4]", "result": "substantially similar reduction of inflammation"}, {"measurement": "undesirable narcotic side effects (tolerance, physical dependence)", "setting": "[10]", "result": "does not exhibit undesirable narcotic side effects"}]}
